# Assay results reported in ChEMBL document CHEMBL1201862, “PubChem BioAssay data set” (2004).
#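 Briefly, cells in 96-well plates were exposed to five compound concentrations for 48 h, and endpoints were estimated by linear interpolation. GI50 marks 50% less growth.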 Calls of active or inactive are those of the source. No stated cut-off is given here; in the data, active = GI50 up to about 1.1 µM and inactive = higher.
# What was measured:
# Assay in all cases: growth of human tumour cells (NCI), 48 h
# T47D = tested on: T47D
# HCT-15 = tested on: HCT-15
# NCI-H460 = tested on: NCI-H460
# 786-0 = tested on: 786-0
# Hs-578T = tested on: Hs-578T
# MDA-MB-435 = tested on: MDA-MB-435
# SR = tested on: SR
# ACHN = tested on: ACHN
# M14 = tested on: M14
# UACC-257 = tested on: UACC-257
# HCC 2998 = tested on: HCC 2998
# SK-MEL-5 = tested on: SK-MEL-5
# NCI-H23 = tested on: NCI-H23
# MCF7 = tested on: MCF7
# SK-MEL-28 = tested on: SK-MEL-28
# SF-268 = tested on: SF-268
# UO-31 = tested on: UO-31
# EKVX = tested on: EKVX
# PC-3 = tested on: PC-3
# HL-60 = tested on: HL-60
Compound,GI50 (T47D),GI50 (HCT-15) [µM],GI50 (NCI-H460),GI50 (786-0),GI50 (Hs-578T),GI50 (MDA-MB-435),GI50 (SR),GI50 (ACHN),GI50 (M14),GI50 (UACC-257),GI50 (HCC 2998),GI50 (SK-MEL-5),GI50 (NCI-H23),GI50 (MCF7),GI50 (SK-MEL-28),GI50 (SF-268),GI50 (UO-31),GI50 (EKVX),GI50 (PC-3),GI50 (HL-60)
CN(C)CCCNc1c(C#N)[n+]([O-])c2cc(Cl)ccc2[n+]1[O-],11.4 µM (inactive),3.75,2.62 µM (inactive),9.95 µM (inactive),31.6 µM (inactive),17.3 µM (inactive),0.867 µM (active),5.5 µM (inactive),8.13 µM (inactive),17.7 µM (inactive),5.53 µM (inactive),5.02 µM (inactive),7.74 µM (inactive),9.38 µM (inactive),65.5 µM (inactive),8.89 µM (inactive),13.4 µM (inactive),5.78 µM (inactive),4.91 µM (inactive),
CC(Cc1ccc(O)cc1)NCC(O)c1ccc(O)c(O)c1 (configuration not stated),> 100 µM (inactive),> 100,> 100 µM (inactive),> 100 µM (inactive),> 100 µM (inactive),> 100 µM (inactive),88.3 µM (inactive),> 100 µM (inactive),> 100 µM (inactive),> 100 µM (inactive),,> 100 µM (inactive),> 100 µM (inactive),> 100 µM (inactive),> 100 µM (inactive),> 100 µM (inactive),> 100 µM (inactive),> 100 µM (inactive),> 100 µM (inactive),
CC(=O)NC1C(OC(C)C(=O)NC(C)C(=O)NC(CCC(=O)NCCCCCNc2ccc([N+](=O)[O-])c3[nH]c4ccccc4c(=O)c23)C(N)=O)C(O)C(CO)OC1(C)OCc1ccccc1 (configuration not stated),> 100 µM (inactive),73.8,26.7 µM (inactive),38.7 µM (inactive),> 100 µM (inactive),> 100 µM (inactive),14 µM (inactive),> 100 µM (inactive),> 100 µM (inactive),> 100 µM (inactive),> 100 µM (inactive),> 100 µM (inactive),> 100 µM (inactive),73.3 µM (inactive),,> 100 µM (inactive),50.4 µM (inactive),> 100 µM (inactive),> 100 µM (inactive),
Cc1nc2c(sc3nc4ccccc4n32)c(=O)[nH]1,> 100 µM (inactive),> 100,,> 100 µM (inactive),> 100 µM (inactive),> 100 µM (inactive),> 100 µM (inactive),> 100 µM (inactive),> 100 µM (inactive),> 100 µM (inactive),> 100 µM (inactive),> 100 µM (inactive),> 100 µM (inactive),> 100 µM (inactive),> 100 µM (inactive),> 100 µM (inactive),> 100 µM (inactive),> 100 µM (inactive),> 100 µM (inactive),
COc1ccc(N2C(=O)CC(c3c[nH]c4ncccc34)C2=O)cc1 (configuration not stated),24.1 µM (inactive),24.8,> 100 µM (inactive),22.3 µM (inactive),> 100 µM (inactive),14.4 µM (inactive),,21.2 µM (inactive),23 µM (inactive),19.3 µM (inactive),> 100 µM (inactive),> 100 µM (inactive),24.2 µM (inactive),27.5 µM (inactive),29 µM (inactive),> 100 µM (inactive),32.4 µM (inactive),37.1 µM (inactive),19.4 µM (inactive),11.5 µM (inactive)
CCCCCC(O)[C@H]1C(=O)C[C@@H](O[Si](C)(C)C(C)(C)C)[C@@H]1/C=C/CCOCc1ccccc1 (some centres not stated),13.6 µM (inactive),10.6,16.9 µM (inactive),11.4 µM (inactive),7.19 µM (inactive),7.31 µM (inactive),,13.5 µM (inactive),12.6 µM (inactive),13.3 µM (inactive),14.9 µM (inactive),16.6 µM (inactive),16.2 µM (inactive),9.02 µM (inactive),15.5 µM (inactive),16.3 µM (inactive),14.5 µM (inactive),17.4 µM (inactive),12.1 µM (inactive),2.35 µM (inactive)
O=C(NC(CCCCN1C(=O)c2ccccc2C1=O)P(=O)(Oc1ccccc1)Oc1ccccc1)OCc1ccccc1 (configuration not stated),> 100 µM (inactive),> 10,> 100 µM (inactive),> 100 µM (inactive),> 100 µM (inactive),> 100 µM (inactive),> 100 µM (inactive),> 100 µM (inactive),> 100 µM (inactive),> 100 µM (inactive),> 100 µM (inactive),> 100 µM (inactive),7.33 µM (inactive),> 100 µM (inactive),> 100 µM (inactive),> 100 µM (inactive),> 100 µM (inactive),> 100 µM (inactive),> 100 µM (inactive),
CCOC(=O)C(O)(C(=O)OCC)c1cc(C(C)(C)C)c(O)c(C(C)(C)C)c1,62.2 µM (inactive),42,,51.4 µM (inactive),32.7 µM (inactive),37.2 µM (inactive),33.6 µM (inactive),41.3 µM (inactive),39 µM (inactive),34.4 µM (inactive),,17.8 µM (inactive),43.6 µM (inactive),40.4 µM (inactive),31.8 µM (inactive),40.7 µM (inactive),52.2 µM (inactive),48.4 µM (inactive),33.7 µM (inactive),25.5 µM (inactive)
Cc1cc2c3c(nc4ccccc42)C(=O)c2ccccc2-c3n1,12.7 µM (inactive),1.35,,25.5 µM (inactive),13.4 µM (inactive),1.66 µM (inactive),1.79 µM (inactive),12.2 µM (inactive),4.44 µM (inactive),22.8 µM (inactive),20.1 µM (inactive),0.569 µM (active),2.4 µM (inactive),10.5 µM (inactive),14.6 µM (inactive),30.6 µM (inactive),10.5 µM (inactive),29.4 µM (inactive),0.851 µM (active),
CN(C)CCCNc1c2c(=O)n(C)c(=O)nc-2n(C)c2ccccc12,5.12 µM (inactive),20.1,2.85 µM (inactive),5.68 µM (inactive),10.1 µM (inactive),3.94 µM (inactive),3 µM (inactive),5.45 µM (inactive),5.02 µM (inactive),4.86 µM (inactive),,6.21 µM (inactive),7.41 µM (inactive),3.82 µM (inactive),10.4 µM (inactive),5.38 µM (inactive),4.51 µM (inactive),6.43 µM (inactive),4.08 µM (inactive),0.966 µM (active)
Nc1ncc(Sc2ccccc2C(=O)O)s1,> 100 µM (inactive),> 100,> 100 µM (inactive),> 100 µM (inactive),> 100 µM (inactive),> 100 µM (inactive),> 100 µM (inactive),> 100 µM (inactive),> 100 µM (inactive),> 100 µM (inactive),,> 100 µM (inactive),> 100 µM (inactive),> 100 µM (inactive),> 100 µM (inactive),> 100 µM (inactive),> 100 µM (inactive),> 100 µM (inactive),> 100 µM (inactive),> 100 µM (inactive)
Nc1ncnc2c1ncn2[C@H]1CC[C@@H](NO)C1,> 100 µM (inactive),> 100,> 100 µM (inactive),> 100 µM (inactive),> 100 µM (inactive),> 100 µM (inactive),> 100 µM (inactive),> 100 µM (inactive),> 100 µM (inactive),> 100 µM (inactive),> 100 µM (inactive),> 100 µM (inactive),> 100 µM (inactive),> 100 µM (inactive),> 100 µM (inactive),> 100 µM (inactive),> 100 µM (inactive),> 100 µM (inactive),> 100 µM (inactive),
C[C@H](CC[C@@H](O)C(C)(C)O)[C@H]1CC[C@@]2(C)[C@@H]3CC=C4[C@@H](CC[C@H](OC5OC(CO)C(O)C(O)C5O)C4(C)C)[C@]3(C)C(=O)C[C@]12C (some centres not stated),97.9 µM (inactive),67.9,52.4 µM (inactive),26.6 µM (inactive),37.3 µM (inactive),42.6 µM (inactive),,32.7 µM (inactive),31.1 µM (inactive),33.7 µM (inactive),89.7 µM (inactive),39.5 µM (inactive),> 100 µM (inactive),51.5 µM (inactive),27.7 µM (inactive),57.7 µM (inactive),28.9 µM (inactive),80.4 µM (inactive),75 µM (inactive),20.7 µM (inactive)
CCOC(=O)CCC(NC(=O)OCc1ccccc1)C(=O)NC(CCC(=O)OCC)C(=O)NC(CCC(=O)OCC)C(=O)NC(CCC(=O)OCC)C(=O)NC(CCC(=O)OCC)C(=O)OCC (configuration not stated),> 100 µM (inactive),> 100,> 100 µM (inactive),> 100 µM (inactive),> 100 µM (inactive),> 100 µM (inactive),> 100 µM (inactive),> 100 µM (inactive),> 100 µM (inactive),> 100 µM (inactive),,> 100 µM (inactive),> 100 µM (inactive),> 100 µM (inactive),> 100 µM (inactive),,> 100 µM (inactive),> 100 µM (inactive),> 100 µM (inactive),
COc1cc2c(cc1O)C1Cc3ccc(OC)c(O)c3C[N+]1(C)CC2 (configuration not stated),> 100 µM (inactive),> 100,> 100 µM (inactive),> 100 µM (inactive),> 100 µM (inactive),> 100 µM (inactive),,> 100 µM (inactive),> 100 µM (inactive),,> 100 µM (inactive),> 100 µM (inactive),> 100 µM (inactive),> 100 µM (inactive),> 100 µM (inactive),> 100 µM (inactive),> 100 µM (inactive),> 100 µM (inactive),> 100 µM (inactive),> 100 µM (inactive)
